Assay results as given in the supplement of paper PMC8882468.
± gives the standard deviation of the averaged measurements.

The compounds below were run on HCI-023 (organoid from a triple-negative breast cancer xenograft) (assay: CTG-3D luminescence at 96 h relative to day-0 seeding control (ratio to day 0); higher = more growth / less cytotoxicity; PDxO 3D drug screen, 96 h, CTG-3D normalised to day-0 seeding control.). Conditions: 1 µM; days in culture: 111.

| SMILES | CTG-3D luminescence at 96 h |
| --- | --- |
| COc1cc2c(Oc3ccc4[nH]c(C)cc4c3F)ncnc2cc1OCCCN1CCCC1 [cediranib] | 0.911 |
| CC(C)n1nc(-c2ccc3oc(N)nc3c2)c2c(N)ncnc21 [sapanisertib] | 0.401 |
| Cc1cc(Nc2ncnc3ccc(NC4=NC(C)(C)CO4)cc23)ccc1Oc1ccn2ncnc2c1 [tucatinib] | 0.941 |
| C[C@H](NC(=O)CCC(F)(F)F)C(=O)N[C@@H]1C(=O)N(CCO)c2ncccc2-c2ccccc21 [crenigacestat] | 0.7 |
| C[C@]12CC[C@@H]3c4ccc(O)cc4C[C@@H](CCCCCCCCC[S+]([O-])CCCC(F)(F)C(F)(F)F)[C@H]3[C@@H]1CC[C@@H]2O (some centres not stated) [fulvestrant] | 0.963 |
| O=C(c1ccc(F)c(F)c1Nc1ccc(I)cc1F)N1CC(O)([C@@H]2CCCCN2)C1 [cobimetinib] | 0.75 |
| O=C(/C=C/c1cccnc1)NCCCCC1CCN(C(=O)c2ccccc2)CC1 [FK866] | 0.0716 |
| CS(=O)(=O)c1ccc(C(=O)Nc2ccc(Cl)c(-c3ccccn3)c2)c(Cl)c1 [vismodegib] | 1.15 |
| C=CCn1c(=O)c2cnc(Nc3ccc(N4CCN(C)CC4)cc3)nc2n1-c1cccc(C(C)(C)O)n1 [adavosertib] | 0.554 |

Same assay, conditions: 1 µM; days in culture: 128

| SMILES | CTG-3D luminescence at 96 h |
| --- | --- |
| COc1cc2c(Oc3ccc4[nH]c(C)cc4c3F)ncnc2cc1OCCCN1CCCC1 [cediranib] | 0.96 ± 0.19 |
| CC(C)n1nc(-c2ccc3oc(N)nc3c2)c2c(N)ncnc21 [sapanisertib] | 0.428 ± 0.005 |
| Cc1cc(Nc2ncnc3ccc(NC4=NC(C)(C)CO4)cc23)ccc1Oc1ccn2ncnc2c1 [tucatinib] | 1.5 ± 0.12 |
| C[C@H](NC(=O)CCC(F)(F)F)C(=O)N[C@@H]1C(=O)N(CCO)c2ncccc2-c2ccccc21 [crenigacestat] | 1.05 ± 0.19 |
| C[C@]12CC[C@@H]3c4ccc(O)cc4C[C@@H](CCCCCCCCC[S+]([O-])CCCC(F)(F)C(F)(F)F)[C@H]3[C@@H]1CC[C@@H]2O (some centres not stated) [fulvestrant] | 1.33 ± 0.058 |
| O=C(c1ccc(F)c(F)c1Nc1ccc(I)cc1F)N1CC(O)([C@@H]2CCCCN2)C1 [cobimetinib] | 0.769 ± 0.079 |
| O=C(/C=C/c1cccnc1)NCCCCC1CCN(C(=O)c2ccccc2)CC1 [FK866] | 0.103 ± 0.018 |
| CS(=O)(=O)c1ccc(C(=O)Nc2ccc(Cl)c(-c3ccccn3)c2)c(Cl)c1 [vismodegib] | 1.31 ± 0.19 |
| C=CCn1c(=O)c2cnc(Nc3ccc(N4CCN(C)CC4)cc3)nc2n1-c1cccc(C(C)(C)O)n1 [adavosertib] | 0.441 ± 0.1 |

Same assay, conditions: 10 µM; days in culture: 111

| SMILES | CTG-3D luminescence at 96 h |
| --- | --- |
| COc1cc2c(Oc3ccc4[nH]c(C)cc4c3F)ncnc2cc1OCCCN1CCCC1 [cediranib] | 0.0116 |
| CC(C)n1nc(-c2ccc3oc(N)nc3c2)c2c(N)ncnc21 [sapanisertib] | 0.462 |
| Cc1cc(Nc2ncnc3ccc(NC4=NC(C)(C)CO4)cc23)ccc1Oc1ccn2ncnc2c1 [tucatinib] | 1.06 |
| C[C@H](NC(=O)CCC(F)(F)F)C(=O)N[C@@H]1C(=O)N(CCO)c2ncccc2-c2ccccc21 [crenigacestat] | 1.28 |
| C[C@]12CC[C@@H]3c4ccc(O)cc4C[C@@H](CCCCCCCCC[S+]([O-])CCCC(F)(F)C(F)(F)F)[C@H]3[C@@H]1CC[C@@H]2O (some centres not stated) [fulvestrant] | 1.24 |
| O=C(c1ccc(F)c(F)c1Nc1ccc(I)cc1F)N1CC(O)([C@@H]2CCCCN2)C1 [cobimetinib] | 0.349 |
| O=C(/C=C/c1cccnc1)NCCCCC1CCN(C(=O)c2ccccc2)CC1 [FK866] | 0.0618 |
| CS(=O)(=O)c1ccc(C(=O)Nc2ccc(Cl)c(-c3ccccn3)c2)c(Cl)c1 [vismodegib] | 1.34 |
| C=CCn1c(=O)c2cnc(Nc3ccc(N4CCN(C)CC4)cc3)nc2n1-c1cccc(C(C)(C)O)n1 [adavosertib] | 0.112 |

Same assay, conditions: 10 µM; days in culture: 128

| SMILES | CTG-3D luminescence at 96 h |
| --- | --- |
| COc1cc2c(Oc3ccc4[nH]c(C)cc4c3F)ncnc2cc1OCCCN1CCCC1 [cediranib] | 0.0129 ± 0.002 |
| CC(C)n1nc(-c2ccc3oc(N)nc3c2)c2c(N)ncnc21 [sapanisertib] | 0.484 ± 0.068 |
| Cc1cc(Nc2ncnc3ccc(NC4=NC(C)(C)CO4)cc23)ccc1Oc1ccn2ncnc2c1 [tucatinib] | 1.59 ± 0.25 |
| C[C@H](NC(=O)CCC(F)(F)F)C(=O)N[C@@H]1C(=O)N(CCO)c2ncccc2-c2ccccc21 [crenigacestat] | 1.52 ± 0.16 |
| C[C@]12CC[C@@H]3c4ccc(O)cc4C[C@@H](CCCCCCCCC[S+]([O-])CCCC(F)(F)C(F)(F)F)[C@H]3[C@@H]1CC[C@@H]2O (some centres not stated) [fulvestrant] | 1.56 ± 0.41 |
| O=C(c1ccc(F)c(F)c1Nc1ccc(I)cc1F)N1CC(O)([C@@H]2CCCCN2)C1 [cobimetinib] | 0.338 ± 0.099 |
| O=C(/C=C/c1cccnc1)NCCCCC1CCN(C(=O)c2ccccc2)CC1 [FK866] | 0.135 ± 0.015 |
| CS(=O)(=O)c1ccc(C(=O)Nc2ccc(Cl)c(-c3ccccn3)c2)c(Cl)c1 [vismodegib] | 1.86 ± 0.42 |
| C=CCn1c(=O)c2cnc(Nc3ccc(N4CCN(C)CC4)cc3)nc2n1-c1cccc(C(C)(C)O)n1 [adavosertib] | 0.148 ± 0.045 |

Same assay, conditions: 100 µM; days in culture: 111

| SMILES | CTG-3D luminescence at 96 h |
| --- | --- |
| COc1cc2c(Oc3ccc4[nH]c(C)cc4c3F)ncnc2cc1OCCCN1CCCC1 [cediranib] | -0.00068 |
| CC(C)n1nc(-c2ccc3oc(N)nc3c2)c2c(N)ncnc21 [sapanisertib] | 0.0354 |
| Cc1cc(Nc2ncnc3ccc(NC4=NC(C)(C)CO4)cc23)ccc1Oc1ccn2ncnc2c1 [tucatinib] | 0.00921 |
| C[C@H](NC(=O)CCC(F)(F)F)C(=O)N[C@@H]1C(=O)N(CCO)c2ncccc2-c2ccccc21 [crenigacestat] | 0.926 |
| C[C@]12CC[C@@H]3c4ccc(O)cc4C[C@@H](CCCCCCCCC[S+]([O-])CCCC(F)(F)C(F)(F)F)[C@H]3[C@@H]1CC[C@@H]2O (some centres not stated) [fulvestrant] | 0.911 |
| O=C(c1ccc(F)c(F)c1Nc1ccc(I)cc1F)N1CC(O)([C@@H]2CCCCN2)C1 [cobimetinib] | -0.00131 |
| O=C(/C=C/c1cccnc1)NCCCCC1CCN(C(=O)c2ccccc2)CC1 [FK866] | 0.0864 |
| CS(=O)(=O)c1ccc(C(=O)Nc2ccc(Cl)c(-c3ccccn3)c2)c(Cl)c1 [vismodegib] | 0.248 |
| C=CCn1c(=O)c2cnc(Nc3ccc(N4CCN(C)CC4)cc3)nc2n1-c1cccc(C(C)(C)O)n1 [adavosertib] | 0.0325 |

Same assay, conditions: 100 µM; days in culture: 128

| SMILES | CTG-3D luminescence at 96 h |
| --- | --- |
| COc1cc2c(Oc3ccc4[nH]c(C)cc4c3F)ncnc2cc1OCCCN1CCCC1 [cediranib] | -0.00109 ± 0.00021 |
| CC(C)n1nc(-c2ccc3oc(N)nc3c2)c2c(N)ncnc21 [sapanisertib] | 0.0623 ± 0.015 |
| Cc1cc(Nc2ncnc3ccc(NC4=NC(C)(C)CO4)cc23)ccc1Oc1ccn2ncnc2c1 [tucatinib] | 0.0109 ± 0.0015 |
| C[C@H](NC(=O)CCC(F)(F)F)C(=O)N[C@@H]1C(=O)N(CCO)c2ncccc2-c2ccccc21 [crenigacestat] | 1.13 ± 0.32 |
| C[C@]12CC[C@@H]3c4ccc(O)cc4C[C@@H](CCCCCCCCC[S+]([O-])CCCC(F)(F)C(F)(F)F)[C@H]3[C@@H]1CC[C@@H]2O (some centres not stated) [fulvestrant] | 1.11 ± 0.18 |
| O=C(c1ccc(F)c(F)c1Nc1ccc(I)cc1F)N1CC(O)([C@@H]2CCCCN2)C1 [cobimetinib] | -0.000598 ± 0.00044 |
| O=C(/C=C/c1cccnc1)NCCCCC1CCN(C(=O)c2ccccc2)CC1 [FK866] | 0.123 ± 0.029 |
| CS(=O)(=O)c1ccc(C(=O)Nc2ccc(Cl)c(-c3ccccn3)c2)c(Cl)c1 [vismodegib] | 0.552 ± 0.047 |
| C=CCn1c(=O)c2cnc(Nc3ccc(N4CCN(C)CC4)cc3)nc2n1-c1cccc(C(C)(C)O)n1 [adavosertib] | 0.06302 ± 0.00018 |

Same assay, conditions: 625 fM; days in culture: 111

| SMILES | CTG-3D luminescence at 96 h |
| --- | --- |
| COc1cc2c(Oc3ccc4[nH]c(C)cc4c3F)ncnc2cc1OCCCN1CCCC1 [cediranib] | 1.41 |
| CC(C)n1nc(-c2ccc3oc(N)nc3c2)c2c(N)ncnc21 [sapanisertib] | 1.44 |
| Cc1cc(Nc2ncnc3ccc(NC4=NC(C)(C)CO4)cc23)ccc1Oc1ccn2ncnc2c1 [tucatinib] | 1.65 |
| C[C@H](NC(=O)CCC(F)(F)F)C(=O)N[C@@H]1C(=O)N(CCO)c2ncccc2-c2ccccc21 [crenigacestat] | 1.3 |
| C[C@]12CC[C@@H]3c4ccc(O)cc4C[C@@H](CCCCCCCCC[S+]([O-])CCCC(F)(F)C(F)(F)F)[C@H]3[C@@H]1CC[C@@H]2O (some centres not stated) [fulvestrant] | 1.61 |
| O=C(c1ccc(F)c(F)c1Nc1ccc(I)cc1F)N1CC(O)([C@@H]2CCCCN2)C1 [cobimetinib] | 1.06 |
| O=C(/C=C/c1cccnc1)NCCCCC1CCN(C(=O)c2ccccc2)CC1 [FK866] | 1.25 |
| CS(=O)(=O)c1ccc(C(=O)Nc2ccc(Cl)c(-c3ccccn3)c2)c(Cl)c1 [vismodegib] | 1.6 |
| C=CCn1c(=O)c2cnc(Nc3ccc(N4CCN(C)CC4)cc3)nc2n1-c1cccc(C(C)(C)O)n1 [adavosertib] | 1.39 |

Same assay, conditions: 625 fM; days in culture: 128

| SMILES | CTG-3D luminescence at 96 h |
| --- | --- |
| COc1cc2c(Oc3ccc4[nH]c(C)cc4c3F)ncnc2cc1OCCCN1CCCC1 [cediranib] | 1.48 ± 0.27 |
| CC(C)n1nc(-c2ccc3oc(N)nc3c2)c2c(N)ncnc21 [sapanisertib] | 1.75 ± 0.43 |
| Cc1cc(Nc2ncnc3ccc(NC4=NC(C)(C)CO4)cc23)ccc1Oc1ccn2ncnc2c1 [tucatinib] | 1.69 ± 0.46 |
| C[C@H](NC(=O)CCC(F)(F)F)C(=O)N[C@@H]1C(=O)N(CCO)c2ncccc2-c2ccccc21 [crenigacestat] | 1.53 ± 0.55 |
| C[C@]12CC[C@@H]3c4ccc(O)cc4C[C@@H](CCCCCCCCC[S+]([O-])CCCC(F)(F)C(F)(F)F)[C@H]3[C@@H]1CC[C@@H]2O (some centres not stated) [fulvestrant] | 1.75 ± 0.19 |
| O=C(c1ccc(F)c(F)c1Nc1ccc(I)cc1F)N1CC(O)([C@@H]2CCCCN2)C1 [cobimetinib] | 1.65 ± 0.51 |
| O=C(/C=C/c1cccnc1)NCCCCC1CCN(C(=O)c2ccccc2)CC1 [FK866] | 1.8 ± 0.19 |
| CS(=O)(=O)c1ccc(C(=O)Nc2ccc(Cl)c(-c3ccccn3)c2)c(Cl)c1 [vismodegib] | 1.67 ± 0.22 |
| C=CCn1c(=O)c2cnc(Nc3ccc(N4CCN(C)CC4)cc3)nc2n1-c1cccc(C(C)(C)O)n1 [adavosertib] | 1.85 ± 0.45 |
